Earlier results on 4 compounds are cited in patent US8293711B2, “Use of natriuretic peptides for treating angioedema syndromes” (Pharis Biotech GmbH, priority 2007, dated 2012).

In data set [1] the test system is HEK-293. Conditions: human embryonic kidney cell line HEK-293; via activation of a cGMP-dependent pathway.
The test system of data set [2] is bradykinin-induced edema in the hamster cheek pouch. Conditions: unspecific tyrosine kinase inhibitors.
The test system of data set [3] is acute renal failure models.

For the compound `CC[C@H](C)[C@@H]1NC(=O)[C@H](CCCNC(=N)N)NC(=O)[C@H](CC(=O)O)NC(=O)[C@H](CCSC)NC(=O)[C@H](CCCNC(=N)N)NC(=O)CNC(=O)CNC(=O)[C@H](Cc2ccccc2)NC(=O)[C@@H](NC(=O)[C@H](CO)NC(=O)[C@H](CO)NC(=O)[C@H](CCCNC(=N)N)NC(=O)[C@H](CCCNC(=N)N)NC(=O)[C@H](CC(C)C)NC(=O)[C@@H](N)CO)CSSC[C@@H](C(=O)N[C@@H](CC(N)=O)C(=O)N[C@@H](CO)C(=O)N[C@@H](Cc2ccccc2)C(=O)N[C@@H](CCCNC(=N)N)C(=O)N[C@@H](Cc2ccc(O)cc2)C(=O)O)NC(=O)CNC(=O)[C@H](CC(C)C)NC(=O)CNC(=O)[C@H](CO)NC(=O)[C@H](CCC(N)=O)NC(=O)[C@H](C)NC(=O)CNC1=O` [ANP, atrial natriuretic peptide], the tyrosine phosphorylation entry in data set [1] is reported as “able to counteract tyrosine phosphorylation”.

In the case of `O=c1c(-c2ccc(O)cc2)coc2cc(O)cc(O)c12` [genistein], in data set [2], the “bradykinin-mediated effect (edema)” value is “attenuated”.

As for `N#CC(C#N)=Cc1cc(O)c(O)c(O)c1` [tyrphostin 25], in data set [2], the “bradykinin-mediated effect (edema)” value is listed as “attenuated”.

In the case of urodilatin, the tyrosine phosphorylation entry in data set [1] is given as “able to counteract tyrosine phosphorylation”. For the same compound, in data set [3], the “diuretic and natriuretic effects” value was “strong diuretic and natriuretic effects”.
